Measured values from patent publication US20060216238A1, “Compositions and methods for targeting or imaging a tissue in a vertebrate subject” (priority 2005, published 2006).

Assays:
[1] = Stability of CPMV particles in simulated gastric conditions (SGF, SIF); format: in vitro ADME
Description: (§1) Stability of CPMV particles in simulated gastric conditions. Simulated gastric fluid (SGF) and simulated intestinal fluid (SIF) were prepared according to Takagi et al. Takagi et al., Biol. Pharm. Bull 26:969-973, 2003. Briefly, pepsin (3.8 mg; Sigma) was dissolved into 5 ml of gastric control fluid (2 mg/ml NaCl, pH 2.0). SIF was prepared by dissolving pancreatin, (10 mg/ml; Sigma) in intestinal control fluid (0.05 M […], pH 6.8). Both solutions were used within the same day. SGF (400 μl) was first incubated at 37° C. for 2 minutes before addition of CPMV (200 μg), giving a ratio of 10 U of pepsin activity/μg of CPMV. The tube contents were mixed by mild vortexing and the tube was immediately placed in a 37° C. water bath for time points ranging from 0-60 minutes, followed by neutralization with 70 μl of 200 mM sodium bicarbonate solution. Similarly, SIF was incubated at 37° C. for 2 minutes before addition of CPMV (200 μg) and the tube contents were placed in a 37° C. water bath for time points up to 120 minutes. Aliquots of virus exposed to SGF or SIF were mixed with 5 μl of NuPAGE 4× LDS-sample buffer, run on 4-12% SDS-PAGE gels, and stained with Simply Blue Safe Stain (Invitrogen). […]

[2] = system: cowpea plants; assay: Infectivity of SGF- or SIF-treated CPMV on cowpea plants; set-up: species or system Vigna unguiculata; details: SGF 60 minutes or SIF 120 minutes, day 14 post-inoculation
Description: as §1

[3] = system: HUVECS stimulated with vegf; assay: Endothelial cell proliferation assay using CFDA; format: cell-based, human; details: 30 ug/ml; listed as wt CPMV
Description: Measure in vitro angiogenesis by endothelial cell proliferation assay. HUVECs were plated in 96 well plates at 10^4 cells/well in 200 ul EGM2 complete medium. Cells were incubated for 24 h at 37° C. in 5% CO2. cells were then washed once in PBS and incubated in serum free, glucose free medium for 24 h to suppress cell growth. Further, the cells were exposed to various treatments like 10% FBS or VEGF165 in the presence or absence of the targeting CPMV chimeras. Wild type CPMV was used as a control. After 48 h incubation, 1 μl of CFDA was added to the wells and the plated were incubated for additional 24 h. The cells were then placed on ice, washed in PBS 3× and finally fixed in cold 10% TCA for 10 minutes. After washing, the cells were lysed and the CFDA incorporation was read at 488 nm.

[4] = target: folate receptor (FR) on KB and HeLa cells (Homo sapiens, UniProt P15328); details: 4° C., both cell lines
[5] = RT-PCR detection of CPMV RNA in tissues of mice inoculated orally (gavage); details: for CPMV RNA detected in bone marrow, mice positive/examined / CPMV RNA detected in brain, mice positive/examined / CPMV RNA detected in duodenum, mice positive/examined / CPMV RNA detected in ileum, mice positive/examined / CPMV RNA detected in jejunum, mice positive/examined / CPMV RNA detected in kidney, mice positive/examined / CPMV RNA detected in liver, mice positive/examined / CPMV RNA detected in lung, mice positive/examined / CPMV RNA detected in spleen, mice positive/examined / CPMV RNA detected in stomach, mice positive/examined: oral

Chain of folate receptor (FR) on KB and HeLa cells (P15328 25-234): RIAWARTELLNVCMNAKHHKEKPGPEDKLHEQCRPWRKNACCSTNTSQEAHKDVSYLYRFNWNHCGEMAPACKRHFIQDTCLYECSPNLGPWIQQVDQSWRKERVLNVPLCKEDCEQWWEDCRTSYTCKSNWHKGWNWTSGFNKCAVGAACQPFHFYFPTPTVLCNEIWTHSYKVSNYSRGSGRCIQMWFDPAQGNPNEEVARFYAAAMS

## cowpea mosaic virus [CPMV]
[1]; SGF, pepsin pH 2.0, 37° C., 0-60 minutes
  integrity on Coomassie-stained gel after SGF: remained intact
[1]; SIF, pancreatin pH 6.8, up to 120 minutes
  integrity on Coomassie-stained gel after SIF: remained intact
[2]
  infectivity on cowpea plants after SGF or SIF: infectivity similar to untreated CPMV
[3]
  effect on cell growth/proliferation: did not affect cell growth/proliferation
[4]
  non-specific binding to the cell surface: significant non-specifig binding
[5]; oral gavage, 4 hours, 1 day, 2 days, 3 days
  CPMV RNA in the blood: detected in the blood of all orally gavaged mice
[5]; D1, Non-perfused
  CPMV RNA detected in bone marrow, mice positive/examined: 3/3
  CPMV RNA detected in brain, mice positive/examined: 3/3
  CPMV RNA detected in duodenum, mice positive/examined: 3/3
  CPMV RNA detected in ileum, mice positive/examined: 3/3
  CPMV RNA detected in jejunum, mice positive/examined: 3/3
  CPMV RNA detected in kidney, mice positive/examined: 3/3
  CPMV RNA detected in liver, mice positive/examined: 3/3
  CPMV RNA detected in lung, mice positive/examined: 3/3
  CPMV RNA detected in spleen, mice positive/examined: 3/3
  CPMV RNA detected in stomach, mice positive/examined: 3/3
[5]; D1, Perfused
  CPMV RNA detected in bone marrow, mice positive/examined: 2/3
  CPMV RNA detected in brain, mice positive/examined: 3/3
  CPMV RNA detected in duodenum, mice positive/examined: 3/3
  CPMV RNA detected in ileum, mice positive/examined: 3/3
  CPMV RNA detected in jejunum, mice positive/examined: 3/3
  CPMV RNA detected in kidney, mice positive/examined: 3/3
  CPMV RNA detected in liver, mice positive/examined: 3/3
  CPMV RNA detected in lung, mice positive/examined: 3/3
  CPMV RNA detected in spleen, mice positive/examined: 3/3
  CPMV RNA detected in stomach, mice positive/examined: 2/3
[5]; D2, Non-perfused
  CPMV RNA detected in bone marrow, mice positive/examined: 0/3
  CPMV RNA detected in brain, mice positive/examined: 1/3
  CPMV RNA detected in duodenum, mice positive/examined: 1/3
  CPMV RNA detected in ileum, mice positive/examined: 3/3
  CPMV RNA detected in jejunum, mice positive/examined: 0/3
  CPMV RNA detected in kidney, mice positive/examined: 0/3
  CPMV RNA detected in liver, mice positive/examined: 3/3
  CPMV RNA detected in lung, mice positive/examined: 1/3
  CPMV RNA detected in spleen, mice positive/examined: 1/3
  CPMV RNA detected in stomach, mice positive/examined: 1/3
[5]; D2, Perfused
  CPMV RNA detected in bone marrow, mice positive/examined: 0/3
  CPMV RNA detected in brain, mice positive/examined: 1/3
  CPMV RNA detected in duodenum, mice positive/examined: 1/3
  CPMV RNA detected in ileum, mice positive/examined: 1/3
  CPMV RNA detected in jejunum, mice positive/examined: 1/3
  CPMV RNA detected in kidney, mice positive/examined: 3/3
  CPMV RNA detected in liver, mice positive/examined: 3/3
  CPMV RNA detected in lung, mice positive/examined: 2/3
  CPMV RNA detected in spleen, mice positive/examined: 0/3
  CPMV RNA detected in stomach, mice positive/examined: 1/3
[5]; D3, Non-perfused
  CPMV RNA detected in bone marrow, mice positive/examined: 1/3
  CPMV RNA detected in brain, mice positive/examined: 3/3
  CPMV RNA detected in duodenum, mice positive/examined: 2/3
  CPMV RNA detected in ileum, mice positive/examined: 2/3
  CPMV RNA detected in jejunum, mice positive/examined: 2/3
  CPMV RNA detected in kidney, mice positive/examined: 1/3
  CPMV RNA detected in liver, mice positive/examined: 2/2
  CPMV RNA detected in lung, mice positive/examined: 1/3
  CPMV RNA detected in spleen, mice positive/examined: 0/3
  CPMV RNA detected in stomach, mice positive/examined: 3/3
[5]; D3, Perfused
  CPMV RNA detected in bone marrow, mice positive/examined: 0/3
  CPMV RNA detected in brain, mice positive/examined: 2/3
  CPMV RNA detected in duodenum, mice positive/examined: 0/2
  CPMV RNA detected in ileum, mice positive/examined: 1/3
  CPMV RNA detected in jejunum, mice positive/examined: 0/2
  CPMV RNA detected in kidney, mice positive/examined: 2/3
  CPMV RNA detected in liver, mice positive/examined: 3/3
  CPMV RNA detected in lung, mice positive/examined: 1/3
  CPMV RNA detected in spleen, mice positive/examined: 0/3
  CPMV RNA detected in stomach, mice positive/examined: 0/3
